Assay results: patent US5849695A, “Parathyroid hormone analogues useful for treatment of osteoporosis and disorders of calcium meatabolism in mammals” (The Regents of the University of California, priority 1993, dated 1998)
Like-named read-outs stand apart in the source and are kept apart here.

Legend:
[1] = target: T1, PTH receptor (Canis lupus familiaris, UniProt Q9TU31); type: biochemical, canine; conditions: for RENAL MEMBRANES Canine Activity (AC*): maximally effective dose; for antagonism of PTH-stimulated adenylate cyclase: canine renal plasma membranes and UMR 106-H5 cells (FIG. 8)
T1 construct: canine renal plasma membranes; from tissue; host or cells: canine kidney (renal plasma membranes)
T1 sequence (Q9TU31 29-595): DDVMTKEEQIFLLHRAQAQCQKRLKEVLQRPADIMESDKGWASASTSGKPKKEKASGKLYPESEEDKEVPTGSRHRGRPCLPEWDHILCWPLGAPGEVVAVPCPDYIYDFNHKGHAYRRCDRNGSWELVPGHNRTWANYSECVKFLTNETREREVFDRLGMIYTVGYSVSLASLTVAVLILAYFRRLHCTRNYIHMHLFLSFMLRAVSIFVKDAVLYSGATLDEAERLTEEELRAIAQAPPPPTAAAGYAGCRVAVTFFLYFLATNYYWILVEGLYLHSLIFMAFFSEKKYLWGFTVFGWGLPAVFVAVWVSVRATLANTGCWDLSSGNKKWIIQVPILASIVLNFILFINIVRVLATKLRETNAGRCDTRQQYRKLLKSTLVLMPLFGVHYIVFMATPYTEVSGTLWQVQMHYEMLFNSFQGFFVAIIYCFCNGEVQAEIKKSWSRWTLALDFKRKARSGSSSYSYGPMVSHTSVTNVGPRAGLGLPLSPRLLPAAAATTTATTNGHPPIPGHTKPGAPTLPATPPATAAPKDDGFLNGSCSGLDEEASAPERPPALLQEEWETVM
Procedure: (§1) Receptor binding assays were carried out in canine renal plasma membranes and in UMR 106-H5 rat osteosarcoma cells as previously described in detail (Ref. 14,32), using ^125 I-labeled PTH(1-34)amide as the radioligand. Binding potency (IC50) was quantified as the concentration of unlabeled peptide required for half-maximal displacement of the radioligand. […] Adenylate cyclase activity was assessed in canine renal membranes by the conversion of [α-32p ] ATP to [^32 P] cyclic AMP, essentially as described, except for the addition of 100 micromolar GTP (Ref. 33,34). Adenylate cyclase activity in UMR 106-H5 cells was assessed essentially as described (Ref. 35). In brief, cells were incubated with [3H]adenine 1 micro Ci/ml of serum-free MEM for two hours at 37° C. to label the endogenous ATP pool. Cells were then exposed to 0.4 mM IBMX for 10 min, followed by the appropriate peptide for an additional 10 min at ambient temperature. The cells are then scraped in 20% TCA, and [3H]cyclic AMP is isolated by the column procedure of Salomon et al. (Ref. 36). Potency in the adenylate cyclase assays (Ka) is the concentration of peptide producing half-maximal enzyme activation.

[2] = target: T2, PTH receptor (Rattus norvegicus, UniProt P25961); type: cell-based; conditions: for UMR106-H5 CELLS Rat Bone Activity (AC*): maximally effective dose
T2 construct: endogenous in cells; host or cells: UMR 106-H5 rat osteosarcoma cells
T2 sequence (P25961 27-591): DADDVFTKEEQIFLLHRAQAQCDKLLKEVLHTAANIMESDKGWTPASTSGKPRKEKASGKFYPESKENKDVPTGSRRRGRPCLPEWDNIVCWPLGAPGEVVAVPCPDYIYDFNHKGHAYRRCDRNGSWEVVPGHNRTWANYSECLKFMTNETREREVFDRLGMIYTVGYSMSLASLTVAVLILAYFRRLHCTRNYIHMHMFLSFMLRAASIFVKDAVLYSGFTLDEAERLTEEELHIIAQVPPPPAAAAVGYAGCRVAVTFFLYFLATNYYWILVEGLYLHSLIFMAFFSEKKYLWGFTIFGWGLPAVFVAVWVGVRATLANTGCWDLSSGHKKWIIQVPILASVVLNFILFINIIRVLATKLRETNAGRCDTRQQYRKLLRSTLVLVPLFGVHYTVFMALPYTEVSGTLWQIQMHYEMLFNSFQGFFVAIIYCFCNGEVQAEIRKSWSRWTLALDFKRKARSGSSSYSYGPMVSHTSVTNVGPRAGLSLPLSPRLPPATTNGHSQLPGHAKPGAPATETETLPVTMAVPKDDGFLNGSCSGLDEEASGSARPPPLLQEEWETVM
Procedure: as §1, with “Assays were conducted using […] cells. These assays were performed as described in Cohen et al. (1991), J. Biological Chem., 266(3), 1997 and in the Experimental section, e.g. Example 11. Receptor” for “Receptor”

[3] = target: T2, PTH receptor; type: binding
Procedure: as §1

[4] = target: T1, PTH receptor; type: binding, canine
Procedure: as §1

[5] = target: T3, PTH receptor (Homo sapiens, UniProt Q03431); type: cell-based; design: In intact rat (UMR-106) and human (SaOS-2) bone cell lines; endogenous in cells; host or cells: SaOS-2 human bone (osteosarcoma) cells
T3 sequence (Q03431 27-593): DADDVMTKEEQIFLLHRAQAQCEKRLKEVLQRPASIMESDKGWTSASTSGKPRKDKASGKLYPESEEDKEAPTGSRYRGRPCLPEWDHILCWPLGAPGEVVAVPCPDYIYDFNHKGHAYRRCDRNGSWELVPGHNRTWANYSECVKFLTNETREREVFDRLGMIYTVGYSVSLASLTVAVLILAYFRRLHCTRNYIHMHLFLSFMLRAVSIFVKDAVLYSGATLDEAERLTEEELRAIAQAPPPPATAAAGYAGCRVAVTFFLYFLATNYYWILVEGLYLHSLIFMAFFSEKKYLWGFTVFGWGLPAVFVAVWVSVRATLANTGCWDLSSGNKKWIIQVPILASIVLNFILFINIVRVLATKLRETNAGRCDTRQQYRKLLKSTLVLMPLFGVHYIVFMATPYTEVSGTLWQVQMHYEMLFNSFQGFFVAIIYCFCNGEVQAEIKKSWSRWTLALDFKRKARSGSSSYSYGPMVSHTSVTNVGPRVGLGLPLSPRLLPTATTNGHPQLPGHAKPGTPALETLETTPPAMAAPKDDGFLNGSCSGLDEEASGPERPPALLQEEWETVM
Description: The renal membrane assay values listed reflect the effect of the polypeptide analogue with kidney tissue receptors. The UMR-106-H5 assay values reflect the effect of the peptide analogue with rat bone tissue receptors. The Sa05-2 assay values reflect the effect of the peptides for human bone tissue receptors.

[6] = Circular dichroism: alpha-helical content; type: physicochemical; conditions: for % HELIX TFE (30%) / % HELIX TFE (0%): Table 1, CD; for % HELIX TFE (30%): 30% trifluoroethanol; for % HELIX TFE (0%): absence of trifluoroethanol
Procedure: Far ultraviolet circular dichroism (CD) spectra were obtained in phosphate buffer (ph 7.0) at 25±1° C. in a 1.0 mm cell on an Instruments SA Jobin Yvon circular dichrograph calibrated with (+) 10-camphorsulfonic acid and epiandosterone. Peptides were analyzed at concentrations ranging from 0.1-0.3 mg/ml. The mean molar ellipticity per residue at 222 nm ([⊖]222 nm-, deg cm^2 /dmol) was used to derive estimates of alpha-helicity according to the method of Taylor and Kaiser (ref. 29).

[7] = Table 1, relative to bPTH(1-34) = 100%
[8] = Table 1, half-maximal enzyme activation, relative to bPTH(1-34) = 100%

Compound	RENAL MEMBRANES Canine Activity (AC*) [1, 7] [%]	UMR106-H5 CELLS Rat Bone Activity (AC*) [2, 7] [%]	RENAL MEMBRANES Canine Potency (AC) [1, 8] [%]	UMR106-H5 CELLS Rat Bone Potency (AC) [2, 7] [%]	UMR106-H5 CELLS Rat Bone Potency (B) [3, 7] [%]	RENAL MEMBRANES Canine Potency (B) [4, 7] [%]	% HELIX TFE (30%) [6] [%]	% HELIX TFE (0%) [6] [%]	other results
CC[C@H](C)[C@H](NC(=O)[C@H](CCC(=O)O)NC(=O)[C@H](CO)NC(=O)[C@@H](NC(=O)[C@H](C)N)C(C)C)C(=O)N[C@@H](CCC(N)=O)C(=O)N[C@@H](Cc1ccccc1)C(=O)N[C@@H](CCSC)C(=O)N[C@@H](Cc1c[nH]cn1)C(=O)N[C@@H](CC(N)=O)C(=O)N[C@@H](CC(C)C)C(=O)NCC(=O)N[C@@H](CCCCN)C(=O)N[C@@H](Cc1c[nH]cn1)C(=O)N[C@@H](CC(C)C)C(=O)N[C@@H](CO)C(=O)N[C@@H](CO)C(=O)N[C@@H](CCSC)C(=O)N[C@@H](CCC(=O)O)C(=O)N[C@@H](CCCNC(=N)N)C(=O)N[C@H](C(=O)N[C@@H](CCC(=O)O)C(=O)N[C@@H](Cc1c[nH]c2ccccc12)C(=O)N[C@@H](CC(C)C)C(=O)N[C@@H](CCCNC(=N)N)C(=O)N[C@@H](CCCCN)C(=O)N[C@@H](CCCCN)C(=O)N[C@@H](CC(C)C)C(=O)N[C@@H](CCC(N)=O)C(=O)N[C@@H](CC(=O)O)C(=O)N[C@H](C(=O)N[C@@H](Cc1c[nH]cn1)C(=O)N[C@@H](CC(N)=O)C(=O)N[C@@H](Cc1ccccc1)C(=O)O)C(C)C)C(C)C [bPTH (1-34), bPTH(1-34), reference compound]	100	100	–	–	–	–	–	–	RENAL MEMBRANES Canine Potency (AC) [1]: 100%; UMR106-H5 CELLS Rat Bone Potency (AC) [2]: 100%; UMR106-H5 CELLS Rat Bone Potency (B) [3]: 100%; RENAL MEMBRANES Canine Potency (B) [4]: 100%
[Ala^6 ]bPTH(1-34)	–	–	–	–	–	–	–	–	potency in human bone cells versus renal membranes ([5]; human bone cells and renal membranes): equipotent
[Glu^3 ]bPTH(1-34)	–	–	–	–	–	–	–	–	retention of binding potency / receptor binding activity ([4]; relative to bPTH(1-34), similar in the kidney and bone systems): less than 0.1%; calculated alpha-helical content ([6]; aqueous solvent conditions): 19%
[His^3 ]bPTH(1-34)	100	100	2.5	75	9	55	84	35	potency for adenylate cyclase activation compared with renal adenylate cyclase ([2]; UMR-106-H5 cells): increased potency
[Lys^3 ]bPTH(1-34)	78	95	1.5	14	3.5	14	81	29	bioactivity in bone cell assays versus kidney ([2]; both bone cell assays): enhanced bioactivity; SAOS2 CELLS Human Bone Activity (AC) [5, 7]: 100%; SAOS2 CELLS Human Bone Potency (AC) [5, 7]: 20%
[Phe^3 ]bPTH(1-34)	–	–	–	–	–	–	–	–	antagonism of PTH-stimulated adenylate cyclase [1]: partial PTH antagonists
[Phe^6 ]bPTH(1-34)	–	–	–	–	–	–	–	–	antagonism of PTH-stimulated adenylate cyclase [1]: inhibition; antagonism of PTH-stimulated adenylate cyclase ([1]; listed as [Phe^6 ]PTH(1-34)): partial PTH antagonists; binding activity retained, of the activity of bPTH(1-34) ([3]; osteosarcoma cells): 4%; binding activity retained, of the activity of bPTH(1-34) ([4]; renal membranes): 1%
[Tyr^3 ]bPTH(1-34)	28	100	1.2	2.5	0.9	2	99	34	agonist behaviour in the adenylate cyclase assay ([1]; both the bone and kidney systems): partial agonist activity; activity in adenylate cyclase compared with renal adenylate cyclase ([2]; UMR-106-H5 cells): increased activity
